The results in this text go back to patent US4195093A, “Furoyl- and thenoyl-aryloxyalkyl carboxylic acid derivatives, their preparation and their use in therapy” (Albert Rolland S.A., priority 1977, dated 1980).

The nature of data set [1]: Diuretic ability in mice (urine volume ratio treated/control). The format is in vivo. As to the method: The diuretic ability of the novel compounds according to the invention has been studied in mice. It is expressed in Table III in the form of a ratio of the volume of urine for the treated animals received during 2 and 4 hours after administration (at the indicated dose) of the test compound to the volume measured under the same conditions for the control animals.

Data set [2] has as its system phenol red in the blood. In words: Uricosuric activity: retention of phenol red in the blood of rats. As to conditions: Rattus norvegicus, read-out: Maximum Ratio measured (phenol red in blood, treated to non-treated). The format is in vivo. As to the method:
The uricosuric activity of the compounds has been shown by the method described by H. C. SCARBOROUGH and G. R. McKINNEY (J. Med. Pharm. Chem. (1962) 5 175) as well as by E. KREPPEL (Med. Exptl. (1959) 1 285); phenol red is administered intravenously to rats and the development of the concentration of this colourant in their blood is studied as a function of time. It is known that rats, which one hour before the beginning of the experiment have received an uricosuric agent, show, in comparison with non-treated animals, retention of phenol red in the blood.
The ratio is that of the concentrations of phenol red found in the blood of animals which have received the test compounds at the dose indicated at the specified time to the concentrations for non-treated animals.

Data set [3] is described as follows: Solubility in aqueous medium (statement). The format is physicochemical.
Data set [4] can be described thus: Acute toxicity orally in mice (method of BLISS). As to conditions: mouse, in vivo. The protocol: The acute toxicity of the new compounds has been studied in mice orally, according to the method of BLISS (Quart. J. Pharm. Pharmacol. (1938) 2 192-216); with the exception of the compounds in Examples 3 and 13, which have an LD50 in the region of 700 mg/kg, all the other compounds have an LD50 above 1000 mg/kg.

Setting [5] is: 1 h, 60 minutes after injection of the colourant.
Setting [6] is: 0.75 h, 45 minutes after injection of the colourant.
Where [7] appears, read: 0.25 h, 15 minutes after injection of the colourant.

Molecules are shown by their SMILES. Structures can show the parent of a compound that is named as a salt. Where two headings read alike, the source gives them in different places.

Turning to `O=C(O)COc1ccc(C(=O)c2ccsc2)c2ccccc12` [Example 10], in data set [1] (200 mg/kg p.o.), the “Diuretic Ability, 0 to 2 hours (ratio of urine volume treated/control)” value turned out to be 1.38 and the “Diuretic Ability, 0 to 4 hours (ratio of urine volume treated/control)” value is given as 1.77. In addition, the response vs control in vivo at 100 mg/kg in data set [2] (0.5 h, 30 minutes after injection of the colourant) was 53%.
On to `O=C(O)COc1c(Br)cc(C(=O)c2cccs2)c2ccccc12` [Example 6], for which the response vs control in vivo at 50 mg/kg in data set [2] (setting [5]) amounted to 116%.
Consider `O=C(O)CCOc1ccc(C(=O)c2ccco2)c2ccccc12` [Example 14], for which the response vs control in vivo at 75 mg/kg in data set [2] (1 h, dose 75 mg/kg, 60 minutes after injection of the colourant) was 80%.
For the compound `O=C(O)COc1ccc(C(=O)c2cccs2)c2ccccc12` [tri(hydroxymethyl)methylamine salt], the “solubility in aqueous medium” value in data set [3] is reported as “particularly useful because of its solubility in aqueous medium”.
`O=C(O)CCOc1ccc(C(=O)c2cccs2)c2ccccc12` [Example 13]: the LD50 (usually the dose expected to kill half of the subjects tested) in data set [4] (mice, oral, method of BLISS) is approximately 700 mg/kg.
For `CCc1oc2ccccc2c1C(=O)c1cc(I)c(O)c(I)c1` [benziodarone, 2-ethyl-3-(4-hydroxy-3,5-diiodobenzoyl)-benzo[b]furane, reference compound], in data set [2] (setting [6]), the response vs control in vivo at 100 mg/kg came to 53%. This compound yielded an LD50 in data set [4] (po) of 1400 mg/kg.
`O=C(O)COc1ccc(C(=NO)c2cccs2)c2ccccc12` [Example 2, [4-(2-Thienyl-hydroxyiminomethyl)-1-naphthyloxy]-acetic acid]: the response vs control in vivo at 100 mg/kg in data set [2] (setting [6]) came out at 77%.
Turning to `O=C(O)COc1ccc(C(=O)c2cccs2)c2ccccc12` [Example 1, [4-(2-Thenoyl)-1-naphthyloxy]-acetic acid], the response vs control in vivo at 50 mg/kg in data set [2] (setting [6]) stood at 100%. In data set [2] (setting [5]), the response vs control in vivo at 100 mg/kg worked out at 121%.
On to `Cc1ccc(C(=O)c2ccc(OCC(=O)O)c3ccccc23)s1` [Example 7], for which, in data set [1] (50 mg/kg p.o.), the “Diuretic Ability, 0 to 2 hours (ratio of urine volume treated/control)” value worked out at 2.01 and the “Diuretic Ability, 0 to 4 hours (ratio of urine volume treated/control)” value stood at 1.70. Further, the response vs control in vivo at 100 mg/kg in data set [2] (setting [7]) worked out at 44%.
With `O=C(O)COc1ccc(C(=O)c2ccoc2)c2ccccc12` [Example 3, [4-(3-Furoyl)-1-naphthlyloxy]-acetic acid], in data set [1] (20 mg/kg p.o.), the “Diuretic Ability, 0 to 2 hours (ratio of urine volume treated/control)” value is on record as 1.53 and the “Diuretic Ability, 0 to 4 hours (ratio of urine volume treated/control)” value was 1.31. Moreover, in data set [1] (50 mg/kg p.o.), the “Diuretic Ability, 0 to 2 hours (ratio of urine volume treated/control)” value was determined as 1.48 and the “Diuretic Ability, 0 to 4 hours (ratio of urine volume treated/control)” value is listed as 1.44. The LD50 in data set [4] (mice, oral, method of BLISS) was approximately 700 mg/kg.
`O=C(O)COc1ccc(C(=O)c2cc3ccccc3o2)c2ccccc12` [Example 12]: the response vs control in vivo at 50 mg/kg in data set [2] (setting [7]) was 51%.
